Results as given in PubChem BioAssay AID1745844 (Carcinogenic Potency Database (CPDB), 2022).
The source made the active and inactive calls. The rule behind the calls is not given here.

Tested on: rodent lifetime carcinogenesis bioassay, tumor incidence TD50
Test: carcinogenic potency in animals, long-term in vivo studies, CPDB compilation (AID 1745844)

Compound C1CO1 has a TD50 (mouse, strain B6C3F1, females, inhaled, site: Harderian gland + lung, lesion: papillary cystadenoma, NOS + alveolar/bronchiolar adenoma + alveolar/bronchiolar carcinoma, dosed 102 weeks, study length 104 weeks) of 45.8 mg/kg/day, a TD50 (mouse, strain B6C3F1, females, inhaled, site: Harderian gland, lesion: papillary cystadenoma, NOS, dosed 102 weeks, study length 104 weeks) of 142 mg/kg/day and a TD50 (mouse, strain B6C3F1, females, inhaled, site: any site (literature study), lesion: several types, types named in the paper, dosed 102 weeks, study length 104 weeks) of 103 mg/kg/day. It also gave a TD50 (mouse, strain B6C3F1, females, inhaled, site: duodenum + Harderian gland + kidney + lung + mediastinum + mammary gland + mesenteric lymph node + multiple organs + spleen + uterus, lesion: malignant lymphoma, NOS + papillary cystadenoma, NOS + alveolar/bronchiolar adenoma + alveolar/bronchiolar carcinoma + adenocarc, dosed 102 weeks, study length 104 weeks) of 39.2 mg/kg/day, a TD50 (mouse, strain B6C3F1, females, inhaled, site: duodenum + kidney + mediastinum + mammary gland + mesenteric lymph node + multiple organs + spleen + uterus, lesion: malignant lymphoma, NOS + adenocarcinoma, NOS + adenosquamous carcinoma + malignant lymphoma, histiocytic type + adenoma, NOS, dosed 102 weeks, study length 104 weeks) of 79.2 mg/kg/day and a TD50 (mouse, strain B6C3F1, females, inhaled, site: duodenum + kidney + mediastinum + mesenteric lymph node + multiple organs + spleen + uterus, lesion: malignant lymphoma, NOS + malignant lymphoma, histiocytic type, dosed 102 weeks, study length 104 weeks) of 139 mg/kg/day. For the same compound, the TD50 (mouse, strain B6C3F1, females, inhaled, site: liver, lesion: hepatocellular adenoma + hepatocellular carcinoma + neoplastic nodule, dosed 102 weeks, study length 104 weeks) was 149 mg/kg/day, the TD50 (mouse, strain B6C3F1, females, inhaled, site: liver, lesion: hepatocellular adenoma, dosed 102 weeks, study length 104 weeks) was 75.8 mg/kg/day and the TD50 (mouse, strain B6C3F1, females, inhaled, site: lung, lesion: alveolar/bronchiolar adenoma + alveolar/bronchiolar carcinoma, dosed 102 weeks, study length 104 weeks) was 61.8 mg/kg/day. It also gave a TD50 (mouse, strain B6C3F1, females, inhaled, site: lung, lesion: alveolar/bronchiolar adenoma, dosed 102 weeks, study length 104 weeks) of 87.5 mg/kg/day, a TD50 (mouse, strain B6C3F1, females, inhaled, site: lung, lesion: alveolar/bronchiolar carcinoma, dosed 102 weeks, study length 104 weeks) of 200 mg/kg/day and a TD50 (mouse, strain B6C3F1, females, inhaled, site: mammary gland, lesion: adenocarcinoma, NOS + adenosquamous carcinoma, dosed 102 weeks, study length 104 weeks) of 76.3 mg/kg/day. It also gave a TD50 (mouse, strain B6C3F1, females, inhaled, site: uterus, lesion: adenocarcinoma, NOS + adenoma, NOS, dosed 102 weeks, study length 104 weeks) of 250 mg/kg/day, a TD50 (mouse, strain B6C3F1, females, inhaled, site: uterus, lesion: adenocarcinoma, NOS, dosed 102 weeks, study length 104 weeks) of 297 mg/kg/day and a TD50 (mouse, strain B6C3F1, males, inhaled, site: Harderian gland + lung, lesion: papillary cystadenoma, NOS + alveolar/bronchiolar adenoma + alveolar/bronchiolar carcinoma, dosed 102 weeks, study length 104 weeks) of 51.2 mg/kg/day. The TD50 (mouse, strain B6C3F1, males, inhaled, site: Harderian gland, lesion: papillary cystadenoma, NOS, dosed 102 weeks, study length 104 weeks) was 110 mg/kg/day, the TD50 (mouse, strain B6C3F1, males, inhaled, site: any site (literature study), lesion: several types, types named in the paper, dosed 102 weeks, study length 104 weeks) was 108 mg/kg/day and the TD50 (mouse, strain B6C3F1, males, inhaled, site: liver, lesion: hepatocellular adenoma + hepatocellular carcinoma + neoplastic nodule, dosed 102 weeks, study length 104 weeks) was 273 mg/kg/day. For the same compound, the TD50 (mouse, strain B6C3F1, males, inhaled, site: lung, lesion: alveolar/bronchiolar adenoma + alveolar/bronchiolar carcinoma, dosed 102 weeks, study length 104 weeks) was 65.7 mg/kg/day, the TD50 (mouse, strain B6C3F1, males, inhaled, site: lung, lesion: alveolar/bronchiolar adenoma, dosed 102 weeks, study length 104 weeks) was 181 mg/kg/day and the TD50 (mouse, strain B6C3F1, males, inhaled, site: lung, lesion: alveolar/bronchiolar carcinoma, dosed 102 weeks, study length 104 weeks) was 110 mg/kg/day. For the same compound, the TD50 (rat, strain Fischer 344/Mai fBR, females, inhaled, site: brain, lesion: several types, types named in the paper, dosed 76 weeks, study length 78 weeks) was 237 mg/kg/day, the TD50 (rat, strain Fischer 344/Mai fBR, females, inhaled, site: brain, lesion: several types, types named in the paper, dosed 101 weeks, study length 104 weeks) was 143 mg/kg/day and the TD50 (rat, strain Fischer 344/Mai fBR, females, inhaled, site: pituitary gland, lesion: adenoma, dosed 76 weeks, study length 78 weeks) was 29.8 mg/kg/day (inactive). The TD50 (rat, strain Fischer 344/Mai fBR, males, inhaled, site: adrenal gland, lesion: pheochromocytoma, dosed 76 weeks, study length 78 weeks) was 26.1 mg/kg/day (inactive), the TD50 (rat, strain Fischer 344/Mai fBR, males, inhaled, site: brain, lesion: astrocytoma, dosed 76 weeks, study length 78 weeks) was 102 mg/kg/day and the TD50 (rat, strain Fischer 344/Mai fBR, males, inhaled, site: brain, lesion: several types, types named in the paper, dosed 105 weeks, study length 108 weeks) was 70.7 mg/kg/day. The carcinogen call (rat, strain Fischer 344/Mai fBR, males, inhaled, site: pituitary gland, lesion: adenoma, dosed 76 weeks, study length 78 weeks) was “negative (inactive)”, the carcinogen call (rat, strain Fischer 344/Mai fBR, males, inhaled, site: testis, lesion: interstitial-cell tumor, dosed 76 weeks, study length 78 weeks) was “negative (inactive)” and the TD50 (rat, strain Fischer 344, males, inhaled, site: brain, lesion: glioma, dosed 101 weeks, study length 104 weeks) was 121 mg/kg/day. The TD50 (rat, strain Fischer 344, males, inhaled, site: peritoneum, lesion: mesothelioma, dosed 101 weeks, study length 104 weeks) was 30.8 mg/kg/day, the TD50 (rat, strain Fischer 344, males, inhaled, site: spleen, lesion: mononuclear-cell leukemia, dosed 101 weeks, study length 104 weeks) was 47.3 mg/kg/day and the TD50 (rat, strain Sprague-Dawley, females, by gavage, site: forestomach, lesion: squamous-cell carcinoma, dosed 107 weeks, study length 150 weeks) was 10.6 mg/kg/day. For the same compound, the TD50 (rat, strain Sprague-Dawley, females, by gavage, site: mammary gland, lesion: adenofibroma, dosed 107 weeks, study length 150 weeks) was 10 mg/kg/day (inactive) and the TD50 (rat, strain Sprague-Dawley, females, by gavage, site: stomach, lesion: several types, types named in the paper, dosed 107 weeks, study length 150 weeks) was 7.43 mg/kg/day.

Cc1ncc([N+](=O)[O-])n1CCO was tested, and the TD50 (mouse, strain Swiss, females, in feed, site: all sites, lesion: malignant lymphoma, dosed 122 weeks, study length 128 weeks) was 1300 mg/kg/day, the TD50 (mouse, strain Swiss, females, in feed, site: liver, lesion: several types, types named in the paper, dosed 122 weeks, study length 128 weeks) was 24200 mg/kg/day (inactive) and the TD50 (mouse, strain Swiss, females, in feed, site: lung, lesion: several types, types named in the paper, dosed 122 weeks, study length 128 weeks) was 937 mg/kg/day. For the same compound, the TD50 (mouse, strain Swiss, males, in feed, site: liver, lesion: several types, types named in the paper, dosed 116 weeks, study length 124 weeks) was 20700 mg/kg/day (inactive), the TD50 (mouse, strain Swiss, males, in feed, site: lung, lesion: several types, types named in the paper, dosed 116 weeks, study length 124 weeks) was 347 mg/kg/day and the TD50 (rat, strain Sas:MRC(WI)BR, females, in feed, site: any site (literature study), lesion: several types, types named in the paper, dosed 147 weeks, study length 151 weeks) was 139 mg/kg/day. For the same compound, the TD50 (rat, strain Sas:MRC(WI)BR, females, in feed, site: liver, lesion: hepatocellular carcinoma, dosed 147 weeks, study length 151 weeks) was 1860 mg/kg/day, the TD50 (rat, strain Sas:MRC(WI)BR, females, in feed, site: mammary gland, lesion: fibroadenoma, dosed 147 weeks, study length 151 weeks) was 431 mg/kg/day and the TD50 (rat, strain Sas:MRC(WI)BR, females, in feed, site: mammary gland, lesion: several types, types named in the paper, dosed 147 weeks, study length 151 weeks) was 446 mg/kg/day. For the same compound, the carcinogen call (rat, strain Sas:MRC(WI)BR, females, in feed, site: pituitary gland, lesion: several types, types named in the paper, dosed 147 weeks, study length 151 weeks) was “negative (inactive)”, the TD50 (rat, strain Sas:MRC(WI)BR, females, in feed, site: subcutaneous tissue, lesion: several types, types named in the paper, dosed 147 weeks, study length 151 weeks) was 4050 mg/kg/day and the TD50 (rat, strain Sas:MRC(WI)BR, females, in feed, site: uterus, lesion: several types, types named in the paper, dosed 147 weeks, study length 151 weeks) was 2970 mg/kg/day (inactive). The TD50 (rat, strain Sas:MRC(WI)BR, males, in feed, site: any site (literature study), lesion: several types, types named in the paper, dosed 140 weeks, study length 144 weeks) was 211 mg/kg/day, the TD50 (rat, strain Sas:MRC(WI)BR, males, in feed, site: liver, lesion: hepatocellular carcinoma, dosed 140 weeks, study length 144 weeks) was 45900 mg/kg/day and the TD50 (rat, strain Sas:MRC(WI)BR, males, in feed, site: mammary gland, lesion: fibroadenoma, dosed 140 weeks, study length 144 weeks) was 2490 mg/kg/day. For the same compound, the TD50 (rat, strain Sas:MRC(WI)BR, males, in feed, site: pituitary gland, lesion: several types, types named in the paper, dosed 140 weeks, study length 144 weeks) was 731 mg/kg/day, the TD50 (rat, strain Sas:MRC(WI)BR, males, in feed, site: subcutaneous tissue, lesion: several types, types named in the paper, dosed 140 weeks, study length 144 weeks) was 2360 mg/kg/day and the TD50 (rat, strain Sas:MRC(WI)BR, males, in feed, site: testis, lesion: several types, types named in the paper, dosed 140 weeks, study length 144 weeks) was 993 mg/kg/day. For the same compound, the TD50 (rat, strain Sprague-Dawley, females, in feed, site: any site (literature study), lesion: several types, types named in the paper, dosed 66 weeks, study length 75 weeks) was 61.1 mg/kg/day (inactive) and the TD50 (rat, strain Sprague-Dawley, females, in feed, site: uterus, lesion: adenomyoma, dosed 66 weeks, study length 75 weeks) was 180 mg/kg/day (inactive).

Work on NNc1ccc(C(=O)O)cc1 yielded a TD50 (mouse, strain Swiss albino, females, in drinking water, site: aorta and large arteries, lesion: leiomyoma, dosed 121 weeks, study length 121 weeks) of 2660 mg/kg/day, a TD50 (mouse, strain Swiss albino, females, in drinking water, site: aorta and large arteries, lesion: leiomyosarcoma, dosed 121 weeks, study length 121 weeks) of 1970 mg/kg/day and a TD50 (mouse, strain Swiss albino, females, in drinking water, site: aorta and large arteries, lesion: several types, types named in the paper, dosed 121 weeks, study length 121 weeks) of 1070 mg/kg/day. For the same compound, the TD50 (mouse, strain Swiss albino, females, in drinking water, site: lung, lesion: adenocarcinoma, dosed 121 weeks, study length 121 weeks) was 11200 mg/kg/day, the TD50 (mouse, strain Swiss albino, females, in drinking water, site: lung, lesion: adenoma, dosed 121 weeks, study length 121 weeks) was 1170 mg/kg/day and the TD50 (mouse, strain Swiss albino, females, in drinking water, site: lung, lesion: several types, types named in the paper, dosed 121 weeks, study length 121 weeks) was 1140 mg/kg/day. For the same compound, the TD50 (mouse, strain Swiss albino, males, in drinking water, site: aorta and large arteries, lesion: leiomyoma, dosed 120 weeks, study length 120 weeks) was 1490 mg/kg/day, the TD50 (mouse, strain Swiss albino, males, in drinking water, site: aorta and large arteries, lesion: leiomyosarcoma, dosed 120 weeks, study length 120 weeks) was 609 mg/kg/day and the TD50 (mouse, strain Swiss albino, males, in drinking water, site: aorta and large arteries, lesion: several types, types named in the paper, dosed 120 weeks, study length 120 weeks) was 380 mg/kg/day. The TD50 (mouse, strain Swiss albino, males, in drinking water, site: lung, lesion: adenoma, dosed 120 weeks, study length 120 weeks) was 597 mg/kg/day, the TD50 (mouse, strain Swiss albino, males, in drinking water, site: lung, lesion: several types, types named in the paper, dosed 120 weeks, study length 120 weeks) was 675 mg/kg/day and the carcinogen call (mouse, strain Swiss, females, by gavage, site: lung, lesion: one or several types, types not named, dosed 40 weeks, study length 55 weeks) was “negative (inactive)”.
